Data on 17 molecules can be found in the supplement of paper PMC4649846.

Assay [1] concerns MDA-MB-231. Nature of the assay: drug sensitivity score (DSS); higher = more sensitive; extreme values may be limits of the assay. To be noted: incubation time: 72 h. How it is done:
(§1)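 MDA-MB-231 breast cancer cells were transfected with siBRCA1 or non-targeting siControl, then seeded 24 h later at 4000 cells/well in 384-well plates holding 198 drugs at 5 concentrations. Viability was read by CellTiter-Blue after 72 h at 37 °C. Dose-response curves were fitted in Dotmatics to give IC50 and a drug sensitivity score (DSS: area under the curve relative to the area between the 10% threshold and 100% inhibition, normalised by the log of the top response). The dose range is not stated. IC50 values of 8333.3 or 4166.7 nM mark no response (top dose), and 0.8333 nM is the lower limit.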

Assay [2] has as its system MDA-MB-231. To be noted: incubation time: 72 h. How it is done:
as §1

Setting [3] is: siRNA: siControl (non-targeting).

As for `CC(=O)Nc1cccc(-n2c(=O)n(C3CC3)c(=O)c3c(Nc4ccc(I)cc4F)n(C)c(=O)c(C)c32)c1`, the drug sensitivity score with MDA-MB-231 [1] (siRNA: siBRCA1) was determined as 22; with MDA-MB-231 [1] (setting [3]), 22.5. Further, the “IC50 of cell viability” value with MDA-MB-231 [2] (siRNA: siBRCA1) came to 2.46 nM; in the assay on MDA-MB-231 [2] (setting [3]) it was 2.21 nM.

Take `CC(=O)c1c(C)c2cnc(Nc3ccc(N4CCNCC4)cn3)nc2n(C2CCCC2)c1=O`: the results for the drug sensitivity score with MDA-MB-231 [1] (siRNA: siBRCA1) and in the assay with MDA-MB-231 [1] (setting [3]) were 6.11 and 9.43, respectively. Moreover, the “IC50 of cell viability” value in the assay with MDA-MB-231 [2] (siRNA: siBRCA1) is 125 nM; with MDA-MB-231 [2] (setting [3]) it was 248 nM.

Take `CN(C)C[C@@H]1CCn2cc(c3ccccc32)C2=C(C(=O)NC2=O)c2cn(c3ccccc23)CCO1`: the drug sensitivity score in the assay with MDA-MB-231 [1] (siRNA: siBRCA1) came out at 5.43; with MDA-MB-231 [1] (setting [3]), 4.41. In addition, the “IC50 of cell viability” value with MDA-MB-231 [2] (siRNA: siBRCA1) is 2720 nM; with MDA-MB-231 [2] (setting [3]), 3770 nM.

For the molecule `CN1CCC(COc2cnc(-c3cccc(Cn4nc(-c5cccc(C#N)c5)ccc4=O)c3)nc2)CC1`, the drug sensitivity score with MDA-MB-231 [1] (siRNA: siBRCA1) is 3.92; in the assay on MDA-MB-231 [1] (setting [3]) it was 3.58. Also, the “IC50 of cell viability” value amounted to 3770 nM in the assay with MDA-MB-231 [2] (siRNA: siBRCA1) and 4020 nM in the assay on MDA-MB-231 [2] (setting [3]).

For the molecule `CNCc1ccc(-c2[nH]c3cc(F)cc4c3c2CCNC4=O)cc1`, the drug sensitivity score with MDA-MB-231 [1] (siRNA: siBRCA1) and in the assay with MDA-MB-231 [1] (setting [3]) was 0 throughout. The “IC50 of cell viability” value in the assay with MDA-MB-231 [2] (siRNA: siBRCA1) and with MDA-MB-231 [2] (setting [3]) was greater than 4170 nM throughout.

For the molecule `COc1ccc(-c2cc3c(C)nc(N)nc3n([C@H]3CC[C@H](OCCO)CC3)c2=O)cn1`, the drug sensitivity score in the assay with MDA-MB-231 [1] (siRNA: siBRCA1) was 18.9; in the assay on MDA-MB-231 [1] (setting [3]) it was 18.6. Moreover, the “IC50 of cell viability” value in the assay on MDA-MB-231 [2] (siRNA: siBRCA1) stood at 125 nM; with MDA-MB-231 [2] (setting [3]), 129 nM.

Turning to `C[C@@]1(C(=O)Nc2ccc(F)nc2)CCCN1c1nc(Nc2cc(C3CC3)n[nH]2)c2cccn2n1`, the drug sensitivity score amounted to 3.5 in the assay with MDA-MB-231 [1] (siRNA: siBRCA1) and 7.43 with MDA-MB-231 [1] (setting [3]). Besides, the “IC50 of cell viability” value in the assay on MDA-MB-231 [2] (siRNA: siBRCA1) was greater than 4170 nM; in the assay on MDA-MB-231 [2] (setting [3]), 1190 nM.

Consider `Cc1cc(Nc2cc(CN3CCOCC3)c3nc(C)c(Cc4ccc(Cl)cc4F)n3n2)n[nH]1`, for which the drug sensitivity score in the assay with MDA-MB-231 [1] (siRNA: siBRCA1) was found to be 6.15; with MDA-MB-231 [1] (setting [3]), 3.18. Besides, the “IC50 of cell viability” value was 1380 nM with MDA-MB-231 [2] (siRNA: siBRCA1) and greater than 4170 nM with MDA-MB-231 [2] (setting [3]).

As to `O=C(NC[C@H](O)CO)c1ccncc1Nc1ccc(I)cc1F`, the drug sensitivity score was 16 with MDA-MB-231 [1] (siRNA: siBRCA1) and 17.4 in the assay on MDA-MB-231 [1] (setting [3]). Besides, the “IC50 of cell viability” value in the assay on MDA-MB-231 [2] (siRNA: siBRCA1) worked out at 132 nM; in the assay with MDA-MB-231 [2] (setting [3]), 50 nM.

Take `CC1CCN(C(=O)CC#N)CC1N(C)c1ncnc2[nH]ccc12` (stereo in doubt) [Tasocitinib]: the drug sensitivity score in the assay on MDA-MB-231 [1] (siRNA: siBRCA1) and in the assay on MDA-MB-231 [1] (setting [3]) was 0 in each case. Further, the “IC50 of cell viability” value with MDA-MB-231 [2] (siRNA: siBRCA1) and in the assay with MDA-MB-231 [2] (setting [3]) was greater than 4170 nM throughout.

`COc1cc2c(cc1O)CC[C@@H]1[C@@H]2CC[C@]2(C)[C@@H](O)CC[C@@H]12` [2-methoxyestradiol]: the results for the drug sensitivity score in the assay with MDA-MB-231 [1] (siRNA: siBRCA1) and with MDA-MB-231 [1] (setting [3]) were 6.82 and 8.29, respectively. Moreover, the “IC50 of cell viability” value with MDA-MB-231 [2] (siRNA: siBRCA1) was 1230 nM; in the assay with MDA-MB-231 [2] (setting [3]), 794 nM.

As to `COc1ccc(S(=O)(=O)Nc2cccnc2Nc2ccc(O)cc2)cc1` [ABT-751], the drug sensitivity score with MDA-MB-231 [1] (siRNA: siBRCA1) came out at 13.9; in the assay on MDA-MB-231 [1] (setting [3]), 13.5. Besides, the “IC50 of cell viability” value worked out at 253 nM with MDA-MB-231 [2] (siRNA: siBRCA1) and 308 nM in the assay on MDA-MB-231 [2] (setting [3]).

Consider `CC(C)(C)c1cc(NC(=O)Nc2ccc(-c3cn4c(n3)sc3cc(OCCN5CCOCC5)ccc34)cc2)no1` [AC220], for which the drug sensitivity score was determined as 0 in the assay with MDA-MB-231 [1] (siRNA: siBRCA1) and 0.0185 with MDA-MB-231 [1] (setting [3]). The “IC50 of cell viability” value in the assay with MDA-MB-231 [2] (siRNA: siBRCA1) and in the assay with MDA-MB-231 [2] (setting [3]) was greater than 4170 nM throughout.

`O=C(Nc1c[nH]nc1-c1nc2ccc(CN3CCOCC3)cc2[nH]1)NC1CC1` [AT9283]: the drug sensitivity score in the assay on MDA-MB-231 [1] (siRNA: siBRCA1) came to 16.5; in the assay with MDA-MB-231 [1] (setting [3]), 18.6. Further, the “IC50 of cell viability” value in the assay with MDA-MB-231 [2] (siRNA: siBRCA1) was found to be 267 nM; in the assay on MDA-MB-231 [2] (setting [3]) it was 173 nM.

Consider `COc1cc(OC2CCN(C)CC2)ccc1Nc1ncc2c(n1)n(C1CCCC1)c(=O)n2C` [AZ 3146], for which the drug sensitivity score in the assay with MDA-MB-231 [1] (siRNA: siBRCA1) and with MDA-MB-231 [1] (setting [3]) was 0 in each case. The “IC50 of cell viability” value with MDA-MB-231 [2] (siRNA: siBRCA1) and in the assay on MDA-MB-231 [2] (setting [3]) was greater than 4170 nM in each case.

As for `COc1ccc(-c2ccc3c(N4CCOC[C@@H]4C)nc(N4CCOC[C@@H]4C)nc3n2)cc1CO` [AZD8055], the drug sensitivity score in the assay on MDA-MB-231 [1] (siRNA: siBRCA1) came to 19.1; in the assay with MDA-MB-231 [1] (setting [3]) it was 18.2. Besides, the “IC50 of cell viability” value in the assay on MDA-MB-231 [2] (siRNA: siBRCA1) was 45.9 nM; in the assay with MDA-MB-231 [2] (setting [3]), 88.8 nM.

As for `NC(=O)Nc1cc(-c2cccc(F)c2)sc1C(=O)N[C@H]1CCCNC1` [AZD 7762], the drug sensitivity score was found to be 17.4 in the assay with MDA-MB-231 [1] (siRNA: siBRCA1) and 13.7 in the assay on MDA-MB-231 [1] (setting [3]). Moreover, the “IC50 of cell viability” value in the assay on MDA-MB-231 [2] (siRNA: siBRCA1) came to 242 nM; in the assay with MDA-MB-231 [2] (setting [3]), 582 nM.
